# Experimental data as given in patent US20250034171A1, “IMIDAZOPYRIDINE AMIDES AND RELATED COMPOUNDS FOR USE IN THE TREATMENT OF BACTERIAL INFECTIONS” (priority 2021, published 2025).
# Experiments:
# [1] = Metabolic stability in liver microsomes (intrinsic clearance); assay type: in vitro ADME; conditions: mouse, microsomes; for half-life at 1 µM: pH 7.4, Metabolic Stability Half life (mouse, min.); for microsomal CLint at 1 µM: pH 7.4, mouse liver microsomes, read-out: Metabolic Stability (liver microsome intrinsic clearance) Clearance (mouse, μl/min./mg protein)
# Protocol: The test compound was incubated under the generic condition (0.5 mg/ml microsomal protein, 1 mM NADPH, 1 mM MgCl2, and 0.1 M phosphate buffer, pH 7.4, 37° C.) at a defined substrate concentration (typically 1 μM) in liver microsomes of selected species across a time course (typically 0, 5, 10, 20, 40 and 60 minutes) at Cyprotex (Cheshire, UK). The liver microsomes, buffer and test compound will be pre-incubated for 5 minutes. The addition of the co-factor NADPH will initiate the reaction and the reaction was terminated by addition of acetonitrile. The samples were centrifuged prior to analysis by LC-MS/MS analysis. The relative amount of parent compound remaining in the active incubations vs. the control incubations (t=0 mins) for each compound was measured by peak area comparison. The in vitro metabolic half-life (t1/2) was calculated using the slope of the log-linear regression from the percentage parent compound remaining versus time relationship (κ), The in vitro intrinsic clearance (Cl^int) (μl/min/mg microsomal protein) was calculated using the in vitro metabolic half-life, incubation volume and the weight of microsomal protein in the incubation.
# [2] = system: Mycobacterium tuberculosis strain H37Rv; test: Test 2: MIC determination against M. tuberculosis, resazurin fluorescence; assay type: cell-based; conditions: Mycobacterium tuberculosis, H37RV, Test 2, M. tuberculosis H37Rv; for MIC90: read-out: Bacterial activity MIC90; for IC50: read-out: Bacterial activity pMIC50 (converted)
smiles,measurement,setting,value
CCc1nc2ncc(OC)cn2c1C(=O)NCc1ccc(-c2nc3n(n2)CC[C@H](C(F)(F)F)C3)cc1 [Compound 49],half-life at 1 µM,[1],1.8 h
same,microsomal CLint at 1 µM,[1],12.9 µL/min/mg
same,MIC90,[2],0.023 µM
same,IC50,[2],7760 pM
O=C(NCc1ccc(-c2nc3n(n2)CC[C@@H](C(F)(F)F)C3)cc1)c1c(C(F)F)nc2n1CCCC2 [Compound 80],half-life at 1 µM,[1],1.42 h
same,microsomal CLint at 1 µM,[1],16.3 µL/min/mg
same,MIC90,[2],0.2 µM
same,IC50,[2],56200 pM
O=C(NCc1ccc(-c2nc3n(n2)CC[C@H](C(F)(F)F)C3)cc1)c1c(C(F)F)nc2n1CCCC2 [Compound 174],half-life at 1 µM,[1],1.34 h
same,microsomal CLint at 1 µM,[1],17.3 µL/min/mg
same,MIC90,[2],0.25 µM
same,IC50,[2],67600 pM
CCc1nc2ncccn2c1C(=O)NCc1ccc(-c2cc3n(n2)CCC(C(F)(F)F)C3)cc1 (centres unmarked) [Compound 180],half-life at 1 µM,[1],2.35 h
same,microsomal CLint at 1 µM,[1],9.9 µL/min/mg
same,MIC90,[2],0.12 µM
same,IC50,[2],20000 pM
CCc1nc2ncccn2c1C(=O)NCc1ccc(-c2cn3c(n2)CC(C(F)(F)F)CC3)c(F)c1 (centres unmarked) [Compound 186],half-life at 1 µM,[1],> 3 h
same,microsomal CLint at 1 µM,[1],< 7.7 µL/min/mg
same,MIC90,[2],0.19 µM
same,IC50,[2],40700 pM
CCc1nc2n(c1C(=O)NCc1ccc(-c3nc4n(n3)CC(C(F)(F)F)CC4)cc1)CCCC2 (centres unmarked) [Compound 188],MIC90,[2],0.23 µM
same,IC50,[2],22900 pM
CCc1nc2ncccn2c1C(=O)NCc1ccc(-c2nc3n(n2)CCC(C(C)(F)F)C3)cc1 (centres unmarked) [Compound 189],MIC90,[2],0.33 µM
same,IC50,[2],87100 pM
CCc1nc2ncccn2c1C(=O)NCc1ccc(-c2nc3n(n2)CC[C@H](C(F)(F)F)C3)cc1 [Compound 190],MIC90,[2],0.19 µM
same,IC50,[2],47900 pM
CCc1nc2ncc(C(F)(F)F)cn2c1C(=O)NCc1ccc(-c2cn3c(n2)C[C@H](C(F)(F)F)CC3)cc1 [Compound 192],MIC90,[2],> 5 µM
same,IC50,[2],1.55e+06 pM
CCc1nc2ncc(C(F)(F)F)cn2c1C(=O)NCc1ccc(-c2cn3c(n2)C[C@@H](C(F)(F)F)CC3)cc1 [Compound 193],MIC90,[2],> 0.5 µM
same,IC50,[2],> 501000 pM
CCc1nc2ncc(N)cn2c1C(=O)NCc1ccc(-c2nc3n(n2)CCC(C(F)(F)F)C3)c(F)c1 (centres unmarked) [Compound 197],MIC90,[2],0.21 µM
same,IC50,[2],69200 pM
CCc1nc2ncc(N)cn2c1C(=O)NCc1ccc(-c2nc3n(n2)CCC(C(F)(F)F)C3)c(C)c1 (centres unmarked) [Compound 198],MIC90,[2],0.15 µM
same,IC50,[2],45700 pM
CCc1nc2ncc(N)cn2c1C(=O)NCc1ccc(-c2nc3n(n2)CCCC3)cc1 [Compound 199],MIC90,[2],> 0.5 µM
same,IC50,[2],> 501000 pM
CCc1nc2ncc(N)cn2c1C(=O)NCc1ccc(-c2nc3n(n2)CCC(C(C)(F)F)C3)cc1 (centres unmarked) [Compound 200],MIC90,[2],0.22 µM
same,IC50,[2],61700 pM
